# In ChEMBL document CHEMBL3045561, “Feeding deterrents from Zanthoxylum schinifolium against two stored-product insects” (J Agric Food Chem, 2009):
# What was measured:
# [1] = test system: Tribolium castaneum; experiment: Feeding deterrent activity against adult Tribolium castaneum (red flour beetle) on compound pre-treated wheat flour disks assessed as mortality at 10 ppm after 3 days by flour disk bioassay (reference value: 0%); format: functional
# [2] = test system: Sitophilus zeamais; experiment: Feeding deterrent activity against adult Sitophilus zeamais on compound pretreated wheat flour disks assessed as food utilization rate at 100 ppm after 3 days by flour disk bioassay (reference value: 11.09 +/-1.12%); format: functional
# [3] = test system: Sitophilus zeamais; experiment: Feeding deterrent activity against adult Sitophilus zeamais on compound pretreated wheat flour disks at 1000 ppm after 3 days by flour disk bioassay; format: functional
# [4] = test system: Sitophilus zeamais; experiment: Feeding deterrent activity against adult Sitophilus zeamais on compound pretreated wheat flour disks at 300 ppm after 3 days by flour disk bioassay; format: functional
# [5] = test system: Tribolium castaneum; experiment: Feeding deterrent activity against adult Tribolium castaneum (red flour beetle) on compound pre-treated wheat flour disks assessed as food utilization rate at 30 ppm after 3 days by flour disk bioassay (reference value: 20.59 +/-1.47%); format: functional
# [6] = test system: Tribolium castaneum; experiment: Feeding deterrent activity against adult Tribolium castaneum (red flour beetle) on compound pre-treated wheat flour disks assessed as mortality at 3 ppm after 3 days by flour disk bioassay (reference value: 0%); format: functional
# [7] = test system: Tribolium castaneum; experiment: Feeding deterrent activity against adult Tribolium castaneum (red flour beetle) on compound pre-treated wheat flour disks assessed as food utilization rate at 300 ppm after 3 days by flour disk bioassay (reference value: 20.59 +/-1.47%); format: functional
# [8] = test system: Sitophilus zeamais; experiment: Feeding deterrent activity against adult Sitophilus zeamais on compound pretreated wheat flour disks assessed as mortality at 300 ppm after 3 days by flour disk bioassay (reference value: 0%); format: functional
# [9] = test system: Tribolium castaneum; experiment: Feeding deterrent activity against adult Tribolium castaneum (red flour beetle) on compound pre-treated wheat flour disks assessed as relative food consumption rate at 30 ppm after 3 days by flour disk bioassay (reference value: 143.22 +/-4.32 ug/mg/day); format: functional
# [10] = test system: Sitophilus zeamais; experiment: Feeding deterrent activity against adult Sitophilus zeamais on compound pretreated wheat flour disks assessed as relative growth rate at 300 ppm after 3 days by flour disk bioassay (reference value: 13.61 +/-1.13 ug/mg/day); format: functional
# [11] = test system: Sitophilus zeamais; experiment: Feeding deterrent activity against adult Sitophilus zeamais on compound pretreated wheat flour disks assessed as relative food consumption rate at 10 ppm after 3 days by flour disk bioassay (reference value: 122.72 +/-4.32 ug/mg/day); format: functional
# [12] = test system: Tribolium castaneum; experiment: Feeding deterrent activity against adult Tribolium castaneum (red flour beetle) on compound pre-treated wheat flour disks assessed as mortality at 100 ppm after 3 days by flour disk bioassay (reference value: 0%); format: functional
# [13] = test system: Sitophilus zeamais; experiment: Feeding deterrent activity against adult Sitophilus zeamais on compound pretreated wheat flour disks assessed as relative growth rate at 100 ppm after 3 days by flour disk bioassay (reference value: 13.61 +/-1.13 ug/mg/day); format: functional
# [14] = test system: Sitophilus zeamais; experiment: Feeding deterrent activity against adult Sitophilus zeamais on compound pretreated wheat flour disks assessed as mortality at 1000 ppm after 3 days by flour disk bioassay (reference value: 0%); format: functional
# [15] = test system: Tribolium castaneum; experiment: Feeding deterrent activity against adult Tribolium castaneum (red flour beetle) on compound pre-treated wheat flour disks assessed as relative food consumption rate at 300 ppm after 3 days by flour disk bioassay (reference value: 143.22 +/-4.32 ug/mg/day); format: functional
# [16] = test system: Tribolium castaneum; experiment: Feeding deterrent activity against adult Tribolium castaneum (red flour beetle) on compound pre-treated wheat flour disks at 10 ppm after 3 days by flour disk bioassay; format: functional
# [17] = test system: Sitophilus zeamais; experiment: Feeding deterrent activity against adult Sitophilus zeamais on compound pretreated wheat flour disks assessed as relative food consumption rate at 300 ppm after 3 days by flour disk bioassay (reference value: 122.72 +/-4.32 ug/mg/day); format: functional
# [18] = test system: Tribolium castaneum; experiment: Feeding deterrent activity against adult Tribolium castaneum (red flour beetle) on compound pre-treated wheat flour disks assessed as relative growth rate at 100 ppm after 3 days by flour disk bioassay (reference value: 29.49 +/-1.35 ug/mg/day); format: functional
# [19] = test system: Sitophilus zeamais; experiment: Feeding deterrent activity against adult Sitophilus zeamais on compound pretreated wheat flour disks assessed as mortality at 3 ppm after 3 days by flour disk bioassay (reference value: 0%); format: functional
# [20] = test system: Sitophilus zeamais; experiment: Feeding deterrent activity against adult Sitophilus zeamais on compound pretreated wheat flour disks assessed as relative food consumption rate at 3 ppm after 3 days by flour disk bioassay (reference value: 122.72 +/-4.32 ug/mg/day); format: functional
# [21] = test system: Sitophilus zeamais; experiment: Feeding deterrent activity against adult Sitophilus zeamais on compound pretreated wheat flour disks assessed as mortality at 100 ppm after 3 days by flour disk bioassay (reference value: 0%); format: functional
# [22] = test system: Sitophilus zeamais; experiment: Feeding deterrent activity against adult Sitophilus zeamais on compound pretreated wheat flour disks assessed as relative growth rate at 10 ppm after 3 days by flour disk bioassay (reference value: 13.61 +/-1.13 ug/mg/day); format: functional
# [23] = test system: Tribolium castaneum; experiment: Feeding deterrent activity against adult Tribolium castaneum (red flour beetle) on compound pre-treated wheat flour disks at 1000 ppm after 3 days by flour disk bioassay; format: functional
# [24] = test system: Tribolium castaneum; experiment: Feeding deterrent activity against adult Tribolium castaneum (red flour beetle) on compound pre-treated wheat flour disks after 3 days by flour disk bioassay; format: functional, organism-based
# [25] = test system: Tribolium castaneum; experiment: Feeding deterrent activity against adult Tribolium castaneum (red flour beetle) on compound pre-treated wheat flour disks assessed as relative growth rate at 3 ppm after 3 days by flour disk bioassay (reference value: 29.49 +/-1.35 ug/mg/day); format: functional
# [26] = test system: Tribolium castaneum; experiment: Feeding deterrent activity against adult Tribolium castaneum (red flour beetle) on compound pre-treated wheat flour disks at 300 ppm after 3 days by flour disk bioassay; format: functional
# [27] = test system: Sitophilus zeamais; experiment: Feeding deterrent activity against adult Sitophilus zeamais on compound pretreated wheat flour disks assessed as relative growth rate at 30 ppm after 3 days by flour disk bioassay (reference value: 13.61 +/-1.13 ug/mg/day); format: functional
# [28] = test system: Tribolium castaneum; experiment: Feeding deterrent activity against adult Tribolium castaneum (red flour beetle) on compound pre-treated wheat flour disks at 100 ppm after 3 days by flour disk bioassay; format: functional
# [29] = test system: Sitophilus zeamais; experiment: Feeding deterrent activity against adult Sitophilus zeamais on compound pretreated wheat flour disks after 3 days by flour disk bioassay; format: functional, organism-based
# [30] = test system: Tribolium castaneum; experiment: Feeding deterrent activity against adult Tribolium castaneum (red flour beetle) on compound pre-treated wheat flour disks assessed as relative food consumption rate at 1000 ppm after 3 days by flour disk bioassay (reference value: 143.22 +/-4.32 ug/mg/day); format: functional
# [31] = test system: Sitophilus zeamais; experiment: Feeding deterrent activity against adult Sitophilus zeamais on compound pretreated wheat flour disks at 30 ppm after 3 days by flour disk bioassay; format: functional
# [32] = test system: Sitophilus zeamais; experiment: Feeding deterrent activity against adult Sitophilus zeamais on compound pretreated wheat flour disks assessed as relative growth rate at 1000 ppm after 3 days by flour disk bioassay (reference value: 13.61 +/-1.13 ug/mg/day); format: functional
# [33] = test system: Sitophilus zeamais; experiment: Feeding deterrent activity against adult Sitophilus zeamais on compound pretreated wheat flour disks assessed as mortality at 10 ppm after 3 days by flour disk bioassay (reference value: 0%); format: functional
# [34] = test system: Sitophilus zeamais; experiment: Feeding deterrent activity against adult Sitophilus zeamais on compound pretreated wheat flour disks assessed as relative food consumption rate at 30 ppm after 3 days by flour disk bioassay (reference value: 122.72 +/-4.32 ug/mg/day); format: functional
# [35] = test system: Sitophilus zeamais; experiment: Feeding deterrent activity against adult Sitophilus zeamais on compound pretreated wheat flour disks at 10 ppm after 3 days by flour disk bioassay; format: functional
# [36] = test system: Sitophilus zeamais; experiment: Feeding deterrent activity against adult Sitophilus zeamais on compound pretreated wheat flour disks at 100 ppm after 3 days by flour disk bioassay; format: functional
# [37] = test system: Sitophilus zeamais; experiment: Feeding deterrent activity against adult Sitophilus zeamais on compound pretreated wheat flour disks assessed as mortality at 30 ppm after 3 days by flour disk bioassay (reference value: 0%); format: functional
compound,measurement,setting,value
CCCCCCCc1cc(=O)c2ccccc2n1C [SCHINIFOLINE],mortality at 10 ppm,[1],0%
same,ECI,[2],7.54%
same,FDI,[3],92.15%
same,FDI,[4],72.35%
same,ECI,[5],16.5%
same,mortality at 3 ppm,[6],0%
same,ECI,[7],7.53%
same,mortality at 300 ppm,[8],6%
same,Activity,[9],79.64 µg/mg/day
same,Activity,[10],2.04 µg/mg/day
same,Activity,[11],114.13 µg/mg/day
same,mortality at 100 ppm,[12],2%
same,Activity,[13],3.79 µg/mg/day
same,mortality at 1000 ppm,[14],16%
same,Activity,[15],21.29 µg/mg/day
same,FDI,[16],18.64%
same,Activity,[17],34.51 µg/mg/day
same,Activity,[18],6.17 µg/mg/day
same,mortality at 3 ppm,[19],0%
same,Activity,[20],122.39 µg/mg/day
same,mortality at 100 ppm,[21],0%
same,Activity,[22],12.25 µg/mg/day
same,FDI,[23],98.34%
same,EC50,[24],47.81 ppm
same,Activity,[25],28.85 µg/mg/day
same,FDI,[26],85.85%
same,Activity,[27],9.06 µg/mg/day
same,FDI,[28],66.28%
same,EC50,[29],85.63 ppm
same,Activity,[30],2.13 µg/mg/day
same,FDI,[31],26.69%
same,Activity,[32],0.4 µg/mg/day
same,mortality at 10 ppm,[33],0%
same,Activity,[34],89.93 µg/mg/day
same,FDI,[35],10.28%
same,FDI,[36],59.19%
same,mortality at 30 ppm,[37],2%
COc1ccc2c(OC)c3ccoc3nc2c1OC [SKIMMIANINE],mortality at 10 ppm,[1],0%
same,ECI,[2],8.37%
same,FDI,[3],82.43%
same,FDI,[4],60.24%
same,ECI,[5],15.12%
same,mortality at 3 ppm,[6],0%
same,ECI,[7],10.03%
same,mortality at 300 ppm,[8],4%
same,Activity,[9],101.27 µg/mg/day
same,Activity,[10],3.07 µg/mg/day
same,Activity,[11],112.77 µg/mg/day
same,mortality at 100 ppm,[12],2%
same,Activity,[13],4.99 µg/mg/day
same,mortality at 1000 ppm,[14],10%
same,Activity,[15],31.56 µg/mg/day
same,FDI,[16],13.21%
same,Activity,[17],45.13 µg/mg/day
same,Activity,[18],8.49 µg/mg/day
same,mortality at 3 ppm,[19],0%
same,Activity,[20],120.9 µg/mg/day
same,mortality at 100 ppm,[21],0%
same,Activity,[22],12.03 µg/mg/day
same,FDI,[23],89.56%
same,EC50,[24],75.71 ppm
same,Activity,[25],27.92 µg/mg/day
same,FDI,[26],68.62%
same,Activity,[27],9.6 µg/mg/day
same,FDI,[28],57.45%
same,EC50,[29],129.72 ppm
same,Activity,[30],15.72 µg/mg/day
same,FDI,[31],26.12%
same,Activity,[32],0.77 µg/mg/day
same,mortality at 10 ppm,[33],0%
same,Activity,[34],92.84 µg/mg/day
same,FDI,[35],10.21%
same,FDI,[36],47.32%
same,mortality at 30 ppm,[37],0%
